Experimental data published in the CheMixHub viscosity set.

Test: xn = mol fraction of the nth substance listed

CCCCCCCCO + C1CCCCC1
Conditions	viscosity [mPa·s]
293.15 K, 100 kPa, x2 = 0.0821	7.85
293.15 K, 100 kPa, x2 = 0.1596	6.77
293.15 K, 100 kPa, x2 = 0.2413	5.78
293.15 K, 100 kPa, x2 = 0.3502	4.63
293.15 K, 100 kPa, x2 = 0.4402	3.78
293.15 K, 100 kPa, x2 = 0.5611	2.83
293.15 K, 100 kPa, x2 = 0.6512	2.26
293.15 K, 100 kPa, x2 = 0.7501	1.79
293.15 K, 100 kPa, x2 = 0.8503	1.38
293.15 K, 100 kPa, x2 = 0.9396	1.11
303.15 K, 100 kPa, x2 = 0.0821	5.56
303.15 K, 100 kPa, x2 = 0.1596	4.83
303.15 K, 100 kPa, x2 = 0.2413	4.15
303.15 K, 100 kPa, x2 = 0.3502	3.33
303.15 K, 100 kPa, x2 = 0.4402	2.73
303.15 K, 100 kPa, x2 = 0.5611	2.08
303.15 K, 100 kPa, x2 = 0.6512	1.72
303.15 K, 100 kPa, x2 = 0.7501	1.4
303.15 K, 100 kPa, x2 = 0.8503	1.12
303.15 K, 100 kPa, x2 = 0.9396	0.92
303.15 K, 101.33 kPa, x1 = 0.1206	1.057
303.15 K, 101.33 kPa, x1 = 0.221	1.301
303.15 K, 101.33 kPa, x1 = 0.2975	1.52
303.15 K, 101.33 kPa, x1 = 0.3517	1.697
303.15 K, 101.33 kPa, x1 = 0.4355	2.023
303.15 K, 101.33 kPa, x1 = 0.5414	2.518
303.15 K, 101.33 kPa, x1 = 0.608	2.869
303.15 K, 101.33 kPa, x1 = 0.755	3.829
303.15 K, 101.33 kPa, x1 = 0.8637	4.746
308 K, 101 kPa, x2 = 0.1494	4.134
308 K, 101 kPa, x2 = 0.2768	3.348
308 K, 101 kPa, x2 = 0.3962	2.659
308 K, 101 kPa, x2 = 0.5076	2.09
308 K, 101 kPa, x2 = 0.6146	1.64
308 K, 101 kPa, x2 = 0.7054	1.36
308 K, 101 kPa, x2 = 0.7911	1.132
308 K, 101 kPa, x2 = 0.8587	0.96
308 K, 101 kPa, x2 = 0.9354	0.828
313.15 K, 100 kPa, x2 = 0.0821	4.06
313.15 K, 100 kPa, x2 = 0.1596	3.56
313.15 K, 100 kPa, x2 = 0.2413	3.09
313.15 K, 100 kPa, x2 = 0.3502	2.52
313.15 K, 100 kPa, x2 = 0.4402	2.1
313.15 K, 100 kPa, x2 = 0.5611	1.65
313.15 K, 100 kPa, x2 = 0.6512	1.37
313.15 K, 100 kPa, x2 = 0.7501	1.14
313.15 K, 100 kPa, x2 = 0.8503	0.9
313.15 K, 100 kPa, x2 = 0.9396	0.78
323.15 K, 100 kPa, x2 = 0.0821	3.03
323.15 K, 100 kPa, x2 = 0.1596	2.65
323.15 K, 100 kPa, x2 = 0.2413	2.31
323.15 K, 100 kPa, x2 = 0.3502	1.93
323.15 K, 100 kPa, x2 = 0.4402	1.66
323.15 K, 100 kPa, x2 = 0.5611	1.34
323.15 K, 100 kPa, x2 = 0.6512	1.13
323.15 K, 100 kPa, x2 = 0.7501	0.95
323.15 K, 100 kPa, x2 = 0.8503	0.77
323.15 K, 100 kPa, x2 = 0.9396	0.66

CC(C)(C)N + CCOC(C)=O
303.15 K, 101 kPa
Conditions	viscosity [mPa·s]
x1 = 0.168	0.4142
x1 = 0.2336	0.4185
x1 = 0.3514	0.424
x1 = 0.5046	0.4329
x1 = 0.5951	0.4363
x1 = 0.6618	0.4371
x1 = 0.8008	0.442
x1 = 0.8723	0.4431

BrC(Br)Br + CC(C)=O
298.15 K, 101 kPa
Conditions	viscosity [mPa·s]
x1 = 0.0969	0.407
x1 = 0.2014	0.529
x1 = 0.332	0.696
x1 = 0.428	0.847
x1 = 0.4952	0.954
x1 = 0.5974	1.131
x1 = 0.6766	1.268
x1 = 0.7997	1.503
x1 = 0.9166	1.73
